Reference: ChEMBL document CHEMBL1134788, “Oxindole derivatives as orally active potent growth hormone secretagogues” (J Med Chem, 2001)

Species: Rattus norvegicus
Assay: In vitro growth hormone releasing activity was measured in rat pituitary cells
Format: functional, cell-based
Settings: Pituitary gland cell

Row | SMILES | EC50 [nM]
1 | CCN(CC)CCN1C(=O)C(O)(c2ccc3ccccc3c2)c2c(C#CCO)cc(Cl)cc21 (centres undefined) | > 1000
2 | CCN(CC)CCN1C(=O)[C@@](O)(c2cc3ccccc3cc2Cl)c2c1cc(C(N)=O)cc2C(F)(F)F | 3
3 | CCN(CC)CCN1C(=O)C(O)(c2ccc3ccccc3c2)c2cc(Br)ccc21 (centres undefined) | > 1000
4 | CCN(CC)CCN1C(=O)C(O)(c2ccc3ccccc3c2)c2c(Br)cccc21 (centres undefined) | 77
5 | CCN(CC)CCN1C(=O)C(O)(c2ccc3ccccc3c2)c2c(Cl)cc(C#CCO)cc21 (centres undefined) | 310
6 | CCN(CC)CCN1C(=O)C(O)(c2ccc3ccccc3c2)c2ccc(Br)cc21 (centres undefined) | 380
7 | CCN(CC)CCN1C(=O)C(O)(c2ccc3ccccc3c2)c2c1cc(C#CCO)cc2C(F)(F)F (centres undefined) | 310
8 | CCN(CC)CCN1C(=O)C(O)(c2ccc3ccccc3c2)c2cccc(Br)c21 (centres undefined) | > 1000
9 | CCN(CC)CCN1C(=O)C(O)(c2ccc3ccccc3c2)c2c1cc(C#CCCC(N)=O)cc2C(F)(F)F (centres undefined) | 30
10 | CCN(CC)CCN1C(=O)C(O)(c2ccc3ccccc3c2)c2c1cc(C(N)=O)cc2C(F)(F)F (centres undefined) | 18
11 | CCN(CC)CCN1C(=O)C(O)(c2ccc3ccccc3c2)c2ccccc21 (centres undefined) | > 1000
12 | CCN(CC)CCN1C(=O)[C@](O)(c2cc3ccccc3cc2Cl)c2c1cc(C(N)=O)cc2C(F)(F)F | 210
13 | CCN(CC)CCN1C(=O)C(O)(c2cc3ccccc3cc2Cl)c2c1cc(C(N)=O)cc2C(F)(F)F (centres undefined) | 3.5
14 | CCN(CC)CCN1C(=O)C(O)(c2ccc3ccccc3c2)c2c1cc(C#CCCC(=O)N1CCOCC1)cc2C(F)(F)F (centres undefined) | 30
